Source: patent US20100298141A1, “SUBSTITUTED PYRIDINE N-OXIDE HERBICIDES” (E. I. DU PONT DE NEMOURS AND COMPANY, priority 2007, published 2010)

Columns and labels:
annual bluegrass = experiment: Test D preemergence test; assay type: in vivo, Poa annua; settings: scale 0 to 100
Description: (§1) Seeds of plant species selected from annual bluegrass (Poa annua), blackgrass (Alopecurus myosuroides), downy bromegrass (Bromus tectorum), field violet (Viola arvensis), green foxtail (Setaria viridis), Italian ryegrass (Lolium multiflorum), littleseed canarygrass (Phalaris minor), spring wheat (Triticum aestivum), wild oat (Avena fatua), […]), winter barley (Hordeum vulgare), and winter wheat (Triticum aestivum) were planted and treated preemergence with test chemicals formulated in a non-phytotoxic solvent mixture which included a surfactant. […] A dash (-) response means no test result.

Italian ryegrass = experiment: Test D preemergence test; assay type: in vivo, Lolium multiflorum; settings: scale 0 to 100
Description: as §1

wild oat = experiment: Test D preemergence test; assay type: in vivo, Avena fatua; settings: scale 0 to 100
Description: as §1

barnyardgrass = experiment: Test G preemergence test; assay type: in vivo, Echinochloa crus-galli; settings: scale 0 to 100
corn = experiment: Test G preemergence test; assay type: in vivo, Zea mays; settings: scale 0 to 100
cotton = experiment: Test G preemergence test; assay type: in vivo, Gossypium hirsutum; settings: scale 0 to 100
field sandbur = experiment: Test G preemergence test; assay type: in vivo, Cenchrus incertus; settings: scale 0 to 100
giant foxtail = experiment: Test G preemergence test; assay type: in vivo, Setaria faberii; settings: scale 0 to 100
millet = experiment: Test G preemergence test; assay type: in vivo, Panicum miliaceum; settings: scale 0 to 100
soybean = experiment: Test G preemergence test; assay type: in vivo, Glycine max; settings: scale 0 to 100
common sowthistle = experiment: Test F preemergence test; assay type: in vivo, Sonchus oleraceous; settings: scale 0 to 100
How it was run: (§2)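 Compound in a non-phytotoxic solvent blend with surfactant is applied preemergence to planted seeds or postemergence to sugarcane plants. Plants and controls stay in the greenhouse 14 to 21 days before visual comparison.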

common chickweed = experiment: Test F preemergence test; assay type: in vivo, Stellaria media; settings: scale 0 to 100
How it was run: as §2

Canada horseweed = experiment: Test F preemergence test; assay type: in vivo, Conyza canadensis; settings: scale 0 to 100
How it was run: as §2

Russian thistle = experiment: Test F preemergence test; assay type: in vivo, Salsola kali; settings: scale 0 to 100
Description: Seeds of plant species selected from bermudagrass (Cynodon dactylon), Surinam grass (Brachiaria decumbens), large crabgrass (Digitaria sanguinalis), green foxtail (Setaria viridis), goosegrass (Eleusine indica), johnsongrass (Sorghum halepense), kochia (Kochia scoparia), pitted morningglory (Ipomoea lacunosa), purple nutsedge (Cyperus rotundus), common ragweed (Ambrosia elation), mustard (Brassica nigra), guineagrass (Panicum maximum), […] (Paspalum dilatatum), barnyardgrass (Echinochloa crus-galli), southern sandbur (Cenchrus echinatus), common sowthistle (Sonchus oleraceous), prickly […] spinosa), Italian ryegrass (Lolium multiflorum), common purslane (Portulaca oleracea), broadleaf signalgrass (Brachiaria platyphylla), common groundsel (Senecio vulgaris), common chickweed (Stellaria media), Virginia dayflower (Commelina virginica), annual bluegrass (Poa annua), naked crabgrass (Digitaria nuda), […] cochinchinensis), quackgrass (Elytrigia repens), Canada horseweed (Conyza canadensis), field bindweed (Convolvulus arvensis), […] (Bidens bipinnata), common mallow (Malva sylvestris), Russian thistle (Salsola kali), and sugarcane (Saccharum officinarum) were planted and treated preemergence with test chemicals formulated in a non-phytotoxic solvent mixture which included a surfactant. At a different time, sugarcane was treated with postemergence applications of some of the test chemicals formulated in the same manner. Plants were approximately 3- to 4-leaf stage for the postemergence treatments. Treated plants and controls were maintained in a greenhouse for 14 to 21 days, after which time all species were compared to controls and visually evaluated. […] A dash (-) response means no test result.

winter barley = experiment: Test C postemergence test; assay type: in vivo, Hordeum vulgare; settings: for Plant response rating, Barley: scale 0 to 100, 0 no effect, 100 complete control
How it was run: (§3)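 Postemergence sprays of formulated test chemicals on plants 2 to 18 cm tall (1- to 4-leaf stage). Greenhouse hold for 13 to 15 days, then visual rating of each species against untreated controls; dash means no test result.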

canarygrass = experiment: Test C postemergence test; assay type: in vivo, Phalaris minor; settings: for Plant response rating, Canarygrass: scale 0 to 100, 0 no effect, 100 complete control
How it was run: as §3

chickweed = experiment: Test C postemergence test; assay type: in vivo, Stellaria media; settings: for Plant response rating, Chickweed: scale 0 to 100, 0 no effect, 100 complete control
How it was run: as §3

Cc1cc[n+]([O-])c(S(=O)(=O)C(C)c2c(C(F)(F)F)nn(C)c2Cl)c1 (racemic) [Compound 14] was tested, and the “Plant response rating, Bluegrass” value (annual bluegrass; 31 g ai/ha) was 0, the “Plant response rating, Bluegrass” value (annual bluegrass; 62 g ai/ha) was 0 and the “Plant response rating, Bluegrass” value (annual bluegrass; 125 g ai/ha) was 65. For the same compound, the “Plant response rating, Bluegrass” value (annual bluegrass; 250 g ai/ha) was 100, the “Plant response rating, Ryegrass, Italian” value (Italian ryegrass; 31 g ai/ha) was 0 and the “Plant response rating, Ryegrass, Italian” value (Italian ryegrass; 62 g ai/ha) was 0. The “Plant response rating, Ryegrass, Italian” value (Italian ryegrass; 125 g ai/ha) was 0, the “Plant response rating, Ryegrass, Italian” value (Italian ryegrass; 250 g ai/ha) was 100 and the “Plant response rating, Oat, Wild” value (wild oat; 31 g ai/ha) was 0. For the same compound, the “Plant response rating, Oat, Wild” value (wild oat; 62 g ai/ha) was 0, the “Plant response rating, Oat, Wild” value (wild oat; 125 g ai/ha) was 0 and the “Plant response rating, Oat, Wild” value (wild oat; 250 g ai/ha) was 20. For the same compound, the “Plant response rating, Barnyardgrass” value (barnyardgrass; 31 g ai/ha) was 0, the “Plant response rating, Barnyardgrass” value (barnyardgrass; 62 g ai/ha) was 45 and the “Plant response rating, Barnyardgrass” value (barnyardgrass; 125 g ai/ha) was 70. The “Plant response rating, Barnyardgrass” value (barnyardgrass; 250 g ai/ha) was 100, the “Plant response rating, Corn” value (corn; 31 g ai/ha) was 0 and the “Plant response rating, Corn” value (corn; 62 g ai/ha) was 0. For the same compound, the “Plant response rating, Corn” value (corn; 125 g ai/ha) was 0, the “Plant response rating, Corn” value (corn; 250 g ai/ha) was 35 and the “Plant response rating, Cotton” value (cotton; 31 g ai/ha) was 0. For the same compound, the “Plant response rating, Cotton” value (cotton; 62 g ai/ha) was 0, the “Plant response rating, Cotton” value (cotton; 125 g ai/ha) was 0 and the “Plant response rating, Cotton” value (cotton; 250 g ai/ha) was 0. The “Plant response rating, Sandbur” value (field sandbur; 31 g ai/ha) was 0, the “Plant response rating, Sandbur” value (field sandbur; 62 g ai/ha) was 20 and the “Plant response rating, Sandbur” value (field sandbur; 125 g ai/ha) was 45. For the same compound, the “Plant response rating, Sandbur” value (field sandbur; 250 g ai/ha) was 85, the “Plant response rating, Foxtail, Giant” value (giant foxtail; 31 g ai/ha) was 0 and the “Plant response rating, Foxtail, Giant” value (giant foxtail; 62 g ai/ha) was 20. The “Plant response rating, Foxtail, Giant” value (giant foxtail; 125 g ai/ha) was 100, the “Plant response rating, Foxtail, Giant” value (giant foxtail; 250 g ai/ha) was 100 and the “Plant response rating, Millet” value (millet; 31 g ai/ha) was 0. The “Plant response rating, Millet” value (millet; 62 g ai/ha) was 15, the “Plant response rating, Millet” value (millet; 125 g ai/ha) was 20 and the “Plant response rating, Millet” value (millet; 250 g ai/ha) was 75. The “Plant response rating, Soybean” value (soybean; 31 g ai/ha) was 0, the “Plant response rating, Soybean” value (soybean; 62 g ai/ha) was 0 and the “Plant response rating, Soybean” value (soybean; 125 g ai/ha) was 0. For the same compound, the “Plant response rating, Soybean” value (soybean; 250 g ai/ha) was 0.

In the case of Cc1cc[n+]([O-])c([S+]([O-])Cc2c(C(F)(F)F)nn(C)c2OCC(F)(F)F)c1 (racemic) [Compound 30], the “Sowthistle plant response rating” value (common sowthistle; 62 g ai/ha, Preemergence) is reported as 100, the “Sowthistle plant response rating” value (common sowthistle; 125 g ai/ha, preemergence) is reported as 100 and the “Plant response rating, Sowthistle” value (common sowthistle; Preemergence, 31 g ai/ha) is reported as 100. The “Chickweed plant response rating” value (common chickweed; 62 g ai/ha, Preemergence) was 100, the “Chickweed plant response rating” value (common chickweed; 125 g ai/ha, preemergence) was 100 and the “Plant response rating, Chickweed” value (common chickweed; Preemergence, 16 g ai/ha) was 75. The “Plant response rating, Chickweed” value (common chickweed; Preemergence, 31 g ai/ha) was 100, the “Horseweed plant response rating” value (Canada horseweed; 62 g ai/ha, Preemergence) was 100 and the “Horseweed plant response rating” value (Canada horseweed; 125 g ai/ha, preemergence) was 100. For the same compound, the “Plant response rating, Horseweed” value (Canada horseweed; Preemergence, 16 g ai/ha) was 100, the “Plant response rating, Horseweed” value (Canada horseweed; Preemergence, 31 g ai/ha) was 100 and the “Russian Thistle plant response rating” value (Russian thistle; 62 g ai/ha, Preemergence) was 100. The “Russian Thistle plant response rating” value (Russian thistle; 125 g ai/ha, preemergence) was 100, the “Plant response rating, Russian Thistle” value (Russian thistle; Preemergence, 16 g ai/ha) was 100 and the “Plant response rating, Russian Thistle” value (Russian thistle; Preemergence, 31 g ai/ha) was 100.

Cc1cc[n+]([O-])c(S(=O)(=O)C(C)c2c(C(F)(F)F)nn(C)c2OC(F)F)c1 (centres unmarked) [Compound 11] was tested, and the “Sowthistle plant response rating” value (common sowthistle; 62 g ai/ha, Preemergence) was 100, the “Sowthistle plant response rating” value (common sowthistle; 125 g ai/ha, preemergence) was 100 and the “Plant response rating, Sowthistle” value (common sowthistle; Preemergence, 31 g ai/ha) was 90. For the same compound, the “Chickweed plant response rating” value (common chickweed; 62 g ai/ha, Preemergence) was 100, the “Chickweed plant response rating” value (common chickweed; 125 g ai/ha, preemergence) was 100 and the “Plant response rating, Chickweed” value (common chickweed; Preemergence, 16 g ai/ha) was 70. The “Plant response rating, Chickweed” value (common chickweed; Preemergence, 31 g ai/ha) was 80, the “Horseweed plant response rating” value (Canada horseweed; 125 g ai/ha, preemergence) was 100 and the “Russian Thistle plant response rating” value (Russian thistle; 62 g ai/ha, Preemergence) was 100. For the same compound, the “Russian Thistle plant response rating” value (Russian thistle; 125 g ai/ha, preemergence) was 100 and the “Plant response rating, Russian Thistle” value (Russian thistle; Preemergence, 31 g ai/ha) was 100.

In the case of Cn1nc(C(F)(F)F)c(C[S+]([O-])c2ccc(Cl)c[n+]2[O-])c1OC(F)F (centres unmarked) [Compound 6], the “Plant response rating (0 to 100), Barley” value (winter barley; 31 g ai/ha) is reported as 0, the “Plant response rating, Barley” value (winter barley; 62 g ai/ha) is reported as 0 and the “Plant response rating, Barley” value (winter barley; 125 g ai/ha) is reported as 0. For the same compound, the “Plant response rating, Barley” value (winter barley; 250 g ai/ha) was 0, the “Plant response rating (0 to 100), Canarygrass” value (canarygrass; 31 g ai/ha) was 0 and the “Plant response rating, Canarygrass” value (canarygrass; 62 g ai/ha) was 0. For the same compound, the “Plant response rating, Canarygrass” value (canarygrass; 125 g ai/ha) was 0, the “Plant response rating, Canarygrass” value (canarygrass; 250 g ai/ha) was 10 and the “Plant response rating (0 to 100), Chickweed” value (chickweed; 31 g ai/ha) was 0. The “Plant response rating, Chickweed” value (chickweed; 62 g ai/ha) was 40, the “Plant response rating, Chickweed” value (chickweed; 125 g ai/ha) was 85 and the “Plant response rating, Chickweed” value (chickweed; 250 g ai/ha) was 95. The “Plant response rating, Sowthistle” value (common sowthistle; 8 g ai/ha, preemergence) was 0, the “Plant response rating, Sowthistle” value (common sowthistle; 16 g ai/ha, preemergence) was 0 and the “Sowthistle plant response rating” value (common sowthistle; 62 g ai/ha, Preemergence) was 90. For the same compound, the “Plant response rating, Sowthistle” value (common sowthistle; Preemergence, 31 g ai/ha) was 50, the “Plant response rating, Chickweed” value (common chickweed; 8 g ai/ha, preemergence) was 80 and the “Chickweed plant response rating” value (common chickweed; 62 g ai/ha, Preemergence) was 100. The “Plant response rating, Chickweed” value (common chickweed; Preemergence, 16 g ai/ha) was 100, the “Plant response rating, Chickweed” value (common chickweed; Preemergence, 31 g ai/ha) was 100 and the “Plant response rating, Russian Thistle” value (Russian thistle; 8 g ai/ha, preemergence) was 0. For the same compound, the “Plant response rating, Russian Thistle” value (Russian thistle; Preemergence, 16 g ai/ha) was 0 and the “Plant response rating, Russian Thistle” value (Russian thistle; Preemergence, 31 g ai/ha) was 0.
